ChEMBL document CHEMBL3120139, “Design, synthesis, pharmacological evaluation and computational studies of 1-(biphenyl-4-yl)-2-[4-(substituted phenyl)-piperazin-1-yl]ethanones as potential antipsychotics” (Eur J Med Chem, 2014)

Assays:
Mus musculus [1] = experiment: Induction of catalepsy in albino mouse at 15 mg/kg, ip relative to control; format: organism-based; set-up: dose 15 mg/kg, route intraperitoneal; conditions: in vivo
Mus musculus [2] = experiment: Antiserotogenic activity in albino mouse assessed as inhibition of 5HTP-induced head twitches at 15 mg/kg, ip measured for 5 mins at every 5 mins interval for 1 hr relative to control; format: functional; conditions: route intraperitoneal
Mus musculus [3] = experiment: Antipsychotic activity in albino mouse assessed as inhibition of apomorphine-induced climbing behaviour at 15 mg/kg, ip measured after 10 mins at 5 mins interval for 30 mins relative to control; format: functional; conditions: route intraperitoneal

| SMILES | Activity (Mus musculus [1]) [%] | inhibition in vivo at 15 mg/kg (Mus musculus [2]) [%] | inhibition in vivo at 15 mg/kg (Mus musculus [3]) [%] |
| --- | --- | --- | --- |
| O=C(CN1CCN(c2ccccc2)CC1)c1ccc(-c2ccccc2)cc1 | 34.53 | 28 | 31.9 |
| O=C1CCc2ccc(OCCCCN3CCN(c4cccc(Cl)c4Cl)CC3)cc2N1 [ARIPIPRAZOLE] | 26.86 | 94.5 | 61.1 |
| O=C(CN1CCN(c2cccc(Cl)c2)CC1)c1ccc(-c2ccccc2)cc1 | 31.84 | 32.6 | 29.9 |
| O=C(CN1CCN(c2ccc(Cl)cc2)CC1)c1ccc(-c2ccccc2)cc1 | 35.17 | 29.2 | 26.4 |
| O=C(CN1CCN(c2cccc(Cl)c2Cl)CC1)c1ccc(-c2ccccc2)cc1 | 28.97 | 38.3 | 42.8 |
| O=C(CN1CCN(c2ccc(F)cc2)CC1)c1ccc(-c2ccccc2)cc1 | 30.48 | 24.5 | 23.4 |
| Cc1ccc(N2CCN(CC(=O)c3ccc(-c4ccccc4)cc3)CC2)cc1 | 38.66 | 29.8 | 33.3 |
| O=C(CN1CCN(c2ccc(Cl)c(Cl)c2)CC1)c1ccc(-c2ccccc2)cc1 | 30.5 | 38.8 | 25.7 |
| Cc1cccc(N2CCN(CC(=O)c3ccc(-c4ccccc4)cc3)CC2)c1C | 29.87 | 35.4 | 40.7 |
| Cc1ccccc1N1CCN(CC(=O)c2ccc(-c3ccccc3)cc2)CC1 | 35.84 | 26.7 | 38.5 |
| COc1ccc(N2CCN(CC(=O)c3ccc(-c4ccccc4)cc3)CC2)cc1 | 59.28 | 36.1 | 32.9 |
| O=C(CN1CCN(c2ccccc2Cl)CC1)c1ccc(-c2ccccc2)cc1 | 42.31 | 35.2 | 38.2 |
| COc1ccccc1N1CCN(CC(=O)c2ccc(-c3ccccc3)cc2)CC1 | 29.43 | 61.3 | 53.4 |
| O=C(CN1CCN(c2cccc(C(F)(F)F)c2)CC1)c1ccc(-c2ccccc2)cc1 | 31.84 | 32.6 | 26.4 |
| Cc1cccc(N2CCN(CC(=O)c3ccc(-c4ccccc4)cc3)CC2)c1 | 33.82 | 29.6 | 33.6 |
